What was measured:
Jack bean urease [1] = biological target: T1, Jack bean urease (Canavalia ensiformis, UniProt P07374); assay: biochemical
T1 construct: purchased Sigma-Aldrich (USA) Type IX

Jack bean urease [2] = biological target: T1, Jack bean urease; assay: mechanistic (kinetic) studies on urease; type: biochemical
Description: For mechanistic studies, urease enzyme solution (1 U/200 μL) was incubated with different concentrations of inhibitors for 15 min at 30° C. The reaction was initiated by adding different concentrations of substrate (0.5-4.0 mM), then phenol and alkali reagent were added and change in absorbance was measured for 50 minutes at 630 nm on microtitre plate reader (Spectra Max M5, Molecular Devices, CA, USA).
The IC50 values were calculated by the EZ-Fit enzyme kinetics program (Perellela Scientific, Inc., Amherst, USA). Lineweaver-Burk plot, secondary plot, and Dixon plot were plotted by using Grafit 7 (Erithacus Software Limited, UK). Grafit 7 program was used to evaluate the correlation coefficients, slopes, and intercepts by linear regression analysis.

T1 sequence (P07374 whole entry, looked up): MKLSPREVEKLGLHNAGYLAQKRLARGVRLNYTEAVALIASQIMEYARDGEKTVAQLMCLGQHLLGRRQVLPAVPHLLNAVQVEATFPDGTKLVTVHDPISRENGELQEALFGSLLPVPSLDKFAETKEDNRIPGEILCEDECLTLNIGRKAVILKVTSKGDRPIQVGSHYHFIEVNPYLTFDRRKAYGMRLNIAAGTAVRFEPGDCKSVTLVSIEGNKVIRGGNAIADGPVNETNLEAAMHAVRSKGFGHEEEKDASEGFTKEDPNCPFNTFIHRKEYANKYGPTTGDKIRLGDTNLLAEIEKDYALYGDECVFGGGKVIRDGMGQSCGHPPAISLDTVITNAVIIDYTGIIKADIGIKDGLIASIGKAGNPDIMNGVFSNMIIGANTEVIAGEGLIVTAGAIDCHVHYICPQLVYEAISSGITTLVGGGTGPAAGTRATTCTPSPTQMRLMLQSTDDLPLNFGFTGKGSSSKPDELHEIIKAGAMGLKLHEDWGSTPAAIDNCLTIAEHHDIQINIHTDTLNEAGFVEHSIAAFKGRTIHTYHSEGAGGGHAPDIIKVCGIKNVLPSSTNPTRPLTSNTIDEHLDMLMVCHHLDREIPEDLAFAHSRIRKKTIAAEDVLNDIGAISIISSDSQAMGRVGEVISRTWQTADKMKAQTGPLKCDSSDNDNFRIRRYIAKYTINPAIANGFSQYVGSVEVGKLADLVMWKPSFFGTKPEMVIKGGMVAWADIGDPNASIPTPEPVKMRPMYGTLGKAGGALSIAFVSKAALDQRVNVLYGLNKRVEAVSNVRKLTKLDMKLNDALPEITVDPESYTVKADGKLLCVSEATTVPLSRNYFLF

## C[C@H](CS)C(=O)N1CCC[C@H]1C(=O)O [Captopril, (2S)-1-[(2S)-2-methyl-3-sulfanylpropanoyl]pyrrolidine-2-carboxylic acid]
Jack bean urease [1]
  IC50: 27 ± 1.97 µM
Jack bean urease [2]; FIG. 2A, apparent Km and Vmax changed
  type of inhibition (Lineweaver-Burk plot): mixed-type inhibitor
Jack bean urease [2]; FIG. 2C, 1/Vmax vs [I]
  type of inhibition (Dixon plot): non-competitive
